Laboratory results taken from US11572590B2, “Methods for evaluating tumor cell spheroids using 3D microfluidic cell culture device” (Dana-Farber Cancer Institute, Inc., priority 2017, dated 2023).
Like-named read-outs stand apart in the source and are kept apart here.

Tests used:
Test in all cases: SelectScreen Kinase Profiling, single point inhibition and IC50 for off-target kinases
Assay type in all cases: biochemical
off-target kinases [1] = molecular target: off-target kinases (Homo sapiens, UniProt Q9HAZ1); conditions: CLK4, LanthaScreen Binding
off-target kinases [2] = molecular target: off-target kinases (Homo sapiens, UniProt P11362); conditions: FGFR1, ZLYTE, ATP Km app
off-target kinases [3] = molecular target: off-target kinases (Homo sapiens, UniProt Q5S007, I2020T); conditions: LRRK2 I2020T, ATP Km app, Adapta
off-target kinases [4] = molecular target: off-target kinases (Homo sapiens, UniProt P53667); conditions: LIMK1, LanthaScreen Binding
off-target kinases [5] = molecular target: T1, off-target kinases (Homo sapiens, UniProt Q96PF2); conditions: STK22B (TSSK2), ZLYTE, ATP Km app
T1 sequence (Q96PF2 1-358): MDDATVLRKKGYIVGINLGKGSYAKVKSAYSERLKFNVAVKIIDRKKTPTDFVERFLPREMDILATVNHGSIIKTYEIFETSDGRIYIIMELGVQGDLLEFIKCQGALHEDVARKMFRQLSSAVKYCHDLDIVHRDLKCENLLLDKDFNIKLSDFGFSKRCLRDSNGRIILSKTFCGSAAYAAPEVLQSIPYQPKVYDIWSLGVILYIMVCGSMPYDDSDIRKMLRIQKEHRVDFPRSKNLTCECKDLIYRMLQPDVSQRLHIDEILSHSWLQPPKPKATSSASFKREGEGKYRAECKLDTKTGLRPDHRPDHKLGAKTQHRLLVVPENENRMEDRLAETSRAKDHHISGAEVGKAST

off-target kinases [6] = molecular target: off-target kinases (Homo sapiens, UniProt P07949, V804L); conditions: RET V804L, ATP Km app, ZLYTE
off-target kinases [7] = molecular target: T2, off-target kinases (Homo sapiens, UniProt O14920); conditions: IKBKB (IKK beta), ATP Km app, ZLYTE
T2 sequence (O14920 1-756): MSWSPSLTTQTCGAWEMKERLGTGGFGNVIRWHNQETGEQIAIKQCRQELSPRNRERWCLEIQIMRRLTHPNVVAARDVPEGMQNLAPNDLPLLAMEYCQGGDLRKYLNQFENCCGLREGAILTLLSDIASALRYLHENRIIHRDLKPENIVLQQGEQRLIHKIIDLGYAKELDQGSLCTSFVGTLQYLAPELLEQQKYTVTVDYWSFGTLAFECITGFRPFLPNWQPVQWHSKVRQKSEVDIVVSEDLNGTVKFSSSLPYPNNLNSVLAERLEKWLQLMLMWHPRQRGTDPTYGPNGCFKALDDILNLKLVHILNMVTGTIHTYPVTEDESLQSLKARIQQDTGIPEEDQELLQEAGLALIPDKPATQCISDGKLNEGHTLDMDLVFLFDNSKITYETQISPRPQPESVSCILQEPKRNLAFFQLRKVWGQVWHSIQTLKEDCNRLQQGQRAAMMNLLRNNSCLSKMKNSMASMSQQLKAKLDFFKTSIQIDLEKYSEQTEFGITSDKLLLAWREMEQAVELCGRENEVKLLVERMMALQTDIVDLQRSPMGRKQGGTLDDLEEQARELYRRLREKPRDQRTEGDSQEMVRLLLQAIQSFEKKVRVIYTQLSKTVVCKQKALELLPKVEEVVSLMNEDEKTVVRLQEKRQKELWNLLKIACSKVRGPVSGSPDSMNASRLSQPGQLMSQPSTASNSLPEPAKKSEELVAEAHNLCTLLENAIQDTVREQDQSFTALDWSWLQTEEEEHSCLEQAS

Sequence of off-target kinases (Homo sapiens, UniProt Q5S007, I2020T) (Q5S007 whole entry I2020T): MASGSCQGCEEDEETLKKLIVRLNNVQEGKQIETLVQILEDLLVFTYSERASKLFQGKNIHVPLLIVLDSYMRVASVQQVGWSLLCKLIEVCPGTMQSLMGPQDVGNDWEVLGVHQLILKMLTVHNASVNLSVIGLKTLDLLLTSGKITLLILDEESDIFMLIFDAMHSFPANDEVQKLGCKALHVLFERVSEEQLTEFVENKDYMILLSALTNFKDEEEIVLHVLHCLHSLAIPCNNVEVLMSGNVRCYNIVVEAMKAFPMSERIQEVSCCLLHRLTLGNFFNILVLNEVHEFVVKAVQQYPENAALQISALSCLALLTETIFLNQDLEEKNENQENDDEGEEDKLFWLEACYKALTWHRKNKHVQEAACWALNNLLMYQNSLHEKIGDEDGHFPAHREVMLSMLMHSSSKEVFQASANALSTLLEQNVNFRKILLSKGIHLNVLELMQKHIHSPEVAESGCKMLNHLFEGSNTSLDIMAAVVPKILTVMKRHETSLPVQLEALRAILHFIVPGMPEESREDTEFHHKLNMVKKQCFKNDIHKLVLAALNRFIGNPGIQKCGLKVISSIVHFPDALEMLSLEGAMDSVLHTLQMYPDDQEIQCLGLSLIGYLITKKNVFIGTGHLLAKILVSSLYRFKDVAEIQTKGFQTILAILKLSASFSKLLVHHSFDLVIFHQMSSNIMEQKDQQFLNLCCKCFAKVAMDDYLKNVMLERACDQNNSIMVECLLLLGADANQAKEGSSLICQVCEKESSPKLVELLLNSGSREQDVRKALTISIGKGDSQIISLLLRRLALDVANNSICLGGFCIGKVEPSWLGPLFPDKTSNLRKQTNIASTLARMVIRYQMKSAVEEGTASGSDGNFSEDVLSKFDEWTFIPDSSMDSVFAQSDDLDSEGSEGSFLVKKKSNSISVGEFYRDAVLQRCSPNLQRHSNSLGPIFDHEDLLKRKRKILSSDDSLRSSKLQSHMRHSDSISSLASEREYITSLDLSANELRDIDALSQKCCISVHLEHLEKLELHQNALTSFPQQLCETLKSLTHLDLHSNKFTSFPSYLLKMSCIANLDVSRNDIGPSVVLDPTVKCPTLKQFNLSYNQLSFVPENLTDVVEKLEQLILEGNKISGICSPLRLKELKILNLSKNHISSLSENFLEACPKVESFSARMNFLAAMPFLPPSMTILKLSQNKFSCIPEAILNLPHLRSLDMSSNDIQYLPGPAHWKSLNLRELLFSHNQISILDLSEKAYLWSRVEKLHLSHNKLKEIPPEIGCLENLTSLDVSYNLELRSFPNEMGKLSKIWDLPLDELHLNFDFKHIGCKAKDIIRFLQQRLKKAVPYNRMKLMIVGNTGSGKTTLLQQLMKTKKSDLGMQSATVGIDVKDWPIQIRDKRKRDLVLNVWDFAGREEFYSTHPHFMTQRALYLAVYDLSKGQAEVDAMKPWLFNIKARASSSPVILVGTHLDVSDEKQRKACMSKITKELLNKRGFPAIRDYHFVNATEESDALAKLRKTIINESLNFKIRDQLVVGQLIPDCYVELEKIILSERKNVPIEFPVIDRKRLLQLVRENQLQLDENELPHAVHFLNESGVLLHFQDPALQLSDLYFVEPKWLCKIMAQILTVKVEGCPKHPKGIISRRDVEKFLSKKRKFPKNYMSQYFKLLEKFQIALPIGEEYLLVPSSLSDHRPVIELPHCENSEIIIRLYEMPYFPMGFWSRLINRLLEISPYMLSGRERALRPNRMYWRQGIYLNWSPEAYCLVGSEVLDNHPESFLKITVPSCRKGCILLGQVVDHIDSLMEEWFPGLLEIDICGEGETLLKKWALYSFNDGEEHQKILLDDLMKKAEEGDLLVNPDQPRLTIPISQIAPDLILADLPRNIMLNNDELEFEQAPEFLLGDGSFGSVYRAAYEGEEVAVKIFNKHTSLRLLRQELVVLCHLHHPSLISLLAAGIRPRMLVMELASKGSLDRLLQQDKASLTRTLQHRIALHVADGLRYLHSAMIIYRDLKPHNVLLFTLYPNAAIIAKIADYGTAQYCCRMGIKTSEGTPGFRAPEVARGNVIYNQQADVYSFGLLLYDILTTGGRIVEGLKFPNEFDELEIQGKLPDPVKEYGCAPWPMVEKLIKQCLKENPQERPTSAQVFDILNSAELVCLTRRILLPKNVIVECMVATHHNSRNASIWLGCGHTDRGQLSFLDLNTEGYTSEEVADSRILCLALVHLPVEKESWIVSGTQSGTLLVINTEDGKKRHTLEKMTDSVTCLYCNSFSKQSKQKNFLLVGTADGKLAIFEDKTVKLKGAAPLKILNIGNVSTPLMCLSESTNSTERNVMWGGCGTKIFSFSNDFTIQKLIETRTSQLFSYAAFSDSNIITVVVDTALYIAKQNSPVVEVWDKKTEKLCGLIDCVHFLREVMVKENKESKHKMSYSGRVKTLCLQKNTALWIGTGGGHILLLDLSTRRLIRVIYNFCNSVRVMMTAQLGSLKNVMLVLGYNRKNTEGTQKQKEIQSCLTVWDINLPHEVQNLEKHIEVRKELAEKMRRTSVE
Sequence of off-target kinases (Homo sapiens, UniProt P53667) (P53667 whole entry): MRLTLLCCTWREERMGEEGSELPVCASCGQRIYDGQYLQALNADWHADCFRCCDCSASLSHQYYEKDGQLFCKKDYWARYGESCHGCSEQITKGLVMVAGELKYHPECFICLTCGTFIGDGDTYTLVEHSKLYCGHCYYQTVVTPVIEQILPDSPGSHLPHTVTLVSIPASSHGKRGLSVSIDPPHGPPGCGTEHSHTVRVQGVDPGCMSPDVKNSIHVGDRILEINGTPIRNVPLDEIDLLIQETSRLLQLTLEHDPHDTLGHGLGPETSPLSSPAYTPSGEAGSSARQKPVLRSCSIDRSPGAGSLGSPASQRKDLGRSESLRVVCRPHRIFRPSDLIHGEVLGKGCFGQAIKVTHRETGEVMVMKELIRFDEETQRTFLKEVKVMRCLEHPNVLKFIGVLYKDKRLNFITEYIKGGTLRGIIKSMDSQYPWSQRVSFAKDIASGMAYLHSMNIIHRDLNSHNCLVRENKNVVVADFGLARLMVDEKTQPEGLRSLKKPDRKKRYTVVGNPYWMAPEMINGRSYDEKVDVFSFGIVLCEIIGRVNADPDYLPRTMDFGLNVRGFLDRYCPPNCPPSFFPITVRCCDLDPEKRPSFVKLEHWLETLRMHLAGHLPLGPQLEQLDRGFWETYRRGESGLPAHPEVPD
Sequence of off-target kinases (Homo sapiens, UniProt Q9HAZ1) (Q9HAZ1 whole entry): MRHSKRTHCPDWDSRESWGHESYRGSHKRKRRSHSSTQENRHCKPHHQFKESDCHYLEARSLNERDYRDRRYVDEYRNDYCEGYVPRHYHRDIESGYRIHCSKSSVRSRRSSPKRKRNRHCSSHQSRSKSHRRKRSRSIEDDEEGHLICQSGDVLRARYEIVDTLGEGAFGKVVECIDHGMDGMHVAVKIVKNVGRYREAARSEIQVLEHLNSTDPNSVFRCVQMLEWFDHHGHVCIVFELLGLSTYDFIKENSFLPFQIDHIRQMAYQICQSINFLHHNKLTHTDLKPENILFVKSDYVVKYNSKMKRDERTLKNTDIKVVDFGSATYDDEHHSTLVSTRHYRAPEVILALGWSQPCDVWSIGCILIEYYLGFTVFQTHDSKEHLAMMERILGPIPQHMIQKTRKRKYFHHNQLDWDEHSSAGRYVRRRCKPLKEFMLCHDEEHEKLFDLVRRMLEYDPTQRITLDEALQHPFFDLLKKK
Sequence of off-target kinases (Homo sapiens, UniProt P11362) (P11362 22-822): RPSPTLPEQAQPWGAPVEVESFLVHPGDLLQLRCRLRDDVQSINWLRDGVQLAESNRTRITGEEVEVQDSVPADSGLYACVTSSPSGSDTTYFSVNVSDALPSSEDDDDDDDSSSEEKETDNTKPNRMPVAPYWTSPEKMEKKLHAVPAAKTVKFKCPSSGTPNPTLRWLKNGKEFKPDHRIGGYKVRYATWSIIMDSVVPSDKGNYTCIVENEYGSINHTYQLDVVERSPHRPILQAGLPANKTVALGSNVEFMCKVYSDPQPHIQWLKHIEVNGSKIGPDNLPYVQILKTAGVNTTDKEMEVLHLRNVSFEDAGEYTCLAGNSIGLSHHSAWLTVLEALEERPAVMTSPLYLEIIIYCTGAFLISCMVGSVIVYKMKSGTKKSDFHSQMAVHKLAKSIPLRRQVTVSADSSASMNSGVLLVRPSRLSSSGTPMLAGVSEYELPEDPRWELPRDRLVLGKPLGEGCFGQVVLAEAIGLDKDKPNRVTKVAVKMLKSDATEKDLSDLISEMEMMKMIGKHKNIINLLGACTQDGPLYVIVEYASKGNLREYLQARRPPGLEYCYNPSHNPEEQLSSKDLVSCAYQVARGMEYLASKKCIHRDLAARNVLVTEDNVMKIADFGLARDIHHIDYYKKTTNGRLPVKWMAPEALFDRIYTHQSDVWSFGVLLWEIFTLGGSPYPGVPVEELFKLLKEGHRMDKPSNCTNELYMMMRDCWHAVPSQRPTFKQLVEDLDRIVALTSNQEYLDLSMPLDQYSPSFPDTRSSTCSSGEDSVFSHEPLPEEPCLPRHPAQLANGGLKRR

Which results are given for N#Cc1cc(-c2ncnc(Nc3ccc(N4CCN(C5COC5)CC4)cc3)n2)ccc1OC1CCOCC1 [Compound 1, 5-(4-((4-(4-(oxetan-3-yl)piperazin-1-yl)phenyl)amino)-1,3,5-triazin-2-yl)-2-((tetrahydro-2H-pyran-4-yl)oxy)benzonitrile]?
inhibition (off-target kinases [1]; read-out: % Inhibition 1): 87%; inhibition (off-target kinases [1]; read-out: % Inhibition 2): 89%; inhibition (off-target kinases [1]; read-out: % Inhibition Avg): 88%; inhibition (off-target kinases [2]; read-out: % Inhibition 1): -5%; inhibition (off-target kinases [2]; read-out: % Inhibition 2): -2%; inhibition (off-target kinases [2]; read-out: % Inhibition Avg): -3%; inhibition (off-target kinases [3]; read-out: % Inhibition 1): 100%; inhibition (off-target kinases [3]; read-out: % Inhibition 2): 98%; inhibition (off-target kinases [3]; read-out: % Inhibition Avg): 99%; inhibition (off-target kinases [4]; read-out: % Inhibition 1): 40%; inhibition (off-target kinases [4]; read-out: % Inhibition 2): 39%; inhibition (off-target kinases [4]; read-out: % Inhibition Avg): 40%; inhibition (off-target kinases [5]; read-out: % Inhibition 1): 12%; inhibition (off-target kinases [5]; read-out: % Inhibition 2): 14%; inhibition (off-target kinases [5]; read-out: % Inhibition Avg): 13%; inhibition (off-target kinases [6]; read-out: % Inhibition 1): 71%; inhibition (off-target kinases [6]; read-out: % Inhibition 2): 66%; inhibition (off-target kinases [6]; read-out: % Inhibition Avg): 69%; inhibition (off-target kinases [7]; read-out: % Inhibition 1): 52%; inhibition (off-target kinases [7]; read-out: % Inhibition 2): 39%; inhibition (off-target kinases [7]; read-out: % Inhibition Avg): 45%
